Data reported in patent US20090068143A1, “ORALLY EFFECTIVE C[…]” (priority 2005, published 2009).
Where two headings read alike, the source gives them in different places.

Columns and labels:
CB2 receptor = CB2 receptor (Homo sapiens, UniProt P34972); assay: CB2 binding assay
visceral pain = assay: Visceral pain, acetic acid induced writhing responses; format: in vivo, ICR mice; details: for inhibition of pain response as compared to untreated animals: 10 mg/kg p.o. in phosphate buffer; for reduction of writhing responses as compared to vehicle treated animals: second study; for effect of antagonist alone on number of writhing responses: 1 mg/kg i.v.; for activity in visceral pain model: fumaric acid up to 5 mg/kg, Gabapentin up to 200 mg/kg, celecoxib up to 10 mg/kg
Procedure: For the i.v. part of the study, compounds were dissolved in CREMOPHOR®:Ethanol and diluted 1:20 in saline prior to injection, fifteen minutes before pain induction. When compounds were delivered per os, they were dissolved in phosphate buffer or in CREMOPHOR®:Ethanol as previously described and administered 1 hour before pain induction. Each treatment group, except for controls comprising at least 30 animals, was composed of at least 6 animals. Fifteen or sixty minutes later, depending on the route selected for drug administration, the mice were injected i.p. with 10 ml/kg of 0.6% acetic acid and the number of visceral pain related behaviors (writhing, stretching, contractions of the abdomen accompanied by an elongation of the body and extension of the hind limbs) is counted over a period of 5 minutes, starting 5 minutes after the acetic acid administration. These visceral pain related behaviors are globally defined as writhing responses (WR). The results are expressed as mean number of writhing responses±SEM. Data were analyzed using analysis of variance (ANOVA) followed by post-hoc Fisher test. A value of p<0.05 was considered to be statistically significant and is indicated on the figure by an asterisk over the relevant treatment group.
The following results were obtained at 2 mg/kg i.v. of test compounds or, in the case of the study performed with cannabinoid receptor antagonists, 1 mg/kg test compound or antagonist alone and 1 mg/kg test compound+1 mg/kg antagonist. In a separate study, it was shown that analgesic activity of compounds of the invention was dose related.

CB1 receptor = CB1 receptor (Homo sapiens, UniProt P21554); assay: CB1 binding assay
inflammatory pain = assay: Inflammatory pain and paw edema, λ carrageenan; format: in vivo, Sprague Dawley rats
Procedure: Male Sprague Dawley rats (average body weight 200 g, Harlan, Israel) were transiently sedated by placement on dry ice for the duration of the injections. Rats were injected subcutaneously, in the subplantar region of one (right) paw with 0.1 ml of 2% w/v λ Carrageenan in sterile saline. […] Test compounds were administered p.o. by oral gavage immediately after the carrageenan injection as pretreatment. Vehicle (PB) treated animals were used as controls. Before induction of inflammatory pain and three hours after injection, the animals reactions to pain stimuli were tested in two systems. The first stimulus was thermal and assessed by the Plantar Test according to Hargreaves, using Ugo Basile Model 7370. The scale was set to an intensity of 50 arbitrary units. The latency time till the animal lift a paw as a reaction to the thermal stimulus was recorded for both the inflamed and non-inflamed hind paws. The second stimulus was mechanical (tactile) and assessed using a Dynamic Plantar Sesthesiomether (Ugo Basile Model 73400-002). […] Finally, the impact on paw edema was assessed. Paw thickness is measured using a dial thickness gauge (Spring-dial, constant low pressure gauge, Mitutoyo, TG/L-1, 0.00 mm) and paw volume is measured using a plethysmometer (model #7150, Ugo Basile, Italy). At the end of the study, animals were euthanized with an i.p. injection of 100 mg/kg pentobarbitone.
The results are measured as the differences between the two hind paws at time 0 and 3 hours both as ALT, for the latency time in the thermal part of the study, and as ΔForce, for the mechanical part of the study. The paw volume is expressed as percent from vehicle treated animals. Results are expressed as mean±SEM for each treatment group and the differences among those groups are analyzed by analysis of variance (ANOVA) followed by post-hoc Tukey's test. A value of p<0.05 was considered to be statistically significant and is indicated on the figure by an asterisk over the relevant treatment group.

MBP induced acute EAE = assay: MBP induced acute EAE; format: in vivo, Lewis rats; details: 30 mg/kg i.v. daily for 5 consecutive days from day of disease induction
Procedure: In the present study, EAE was induced by injection of Myelin Basic Protein (MBP), a method known to model the acute phase of MS. In this model the onset of the disease is observed by the appearance of clinical symptoms about 10 days after induction. The disease progresses and the clinical score increases and peaks around day 15 and spontaneous recovery is observed around day 23 after induction of the disease.
Female Lewis rats (average body weight 130-180 g, Harlan, Israel) were injected s.c. into the hind paws with 25 μg of purified guinea pig myelin basic protein (MBP, Sigma) emulsified in 0.1 ml of Complete Freund's Adjuvant (Difco). Animals were maintained on a 12 hours light/12 hours dark regimen, at a constant temperature of 22° C., with food and water ad libitum. Starting from day 8 following induction, animals were followed up on a daily basis. The results are recorded as clinical score; score of 0 indicates a normal animal with no clinical signs, 0.5 indicates a loss of tonicity in the tail's distal part, 1 indicates whole tail paralysis, 1.5 indicates hind legs weakness in one leg, 2 indicates hind legs weakness in two legs, 2.5 indicates fore legs paralysis in one leg, 3 indicates paralysis of all four legs, 4 indicates complete body paralysis and moribund state and 5 indicates death. The clinical score of the animals is recorded for 15 days following onset of disease until the end of the study 25 days following induction and the area under the curve (AUC) is calculated over this period of time.
Few routes of administration were assessed and the treatments were either administered intravenously (in CE vehicle) or orally by gavage (in PB vehicle) at volume dose of 5 ml/kg.
Results are expressed as mean±SEM and the differences between the treatment groups were analyzed by analysis of variance (ANOVA) followed by Tukey's post hoc test. A value of p<0.05 was considered to be statistically significant and is indicated on the figure by an asterisk over the relevant treatment group.
Compound 18A was dissolved in CREMOPHOR EL®:ethanol and further diluted in physiological buffer prior to i.v. administration. It is now disclosed that compound 18F could be dissolved directly in 80 mM phosphate buffer (pH 6.4) and administered p.o. Compound 18F was administered by oral gavage at doses of 20, 30, 40, 50 and 60 mg/kg to animals showing clinical signs of the disease. Each treatment group comprised at least 10 animals at onset of disease. At some doses, experiments were repeated up to four times.

[1] = test system: Taxol® induced neuropathic pain; assay: Taxol® induced neuropathic pain; format: in vivo, Sprague Dawley rats; details: gabapentin 100 mg/kg i.p., morphine 5 mg/kg i.p.; not statistically significant
Procedure: Male Sprague Dawley rats (average body weight 150-200 g, Harlan, Israel) were administered i.p. with 6 mg/kg Taxol® (Bristol Myers Squibb, USA) every other day for 9 days. On day 13, baseline pain threshold was measured. One hour later, the animals were administered with 5 ml/kg i.p. of vehicle (PB) only and pain threshold was re-established. After an additional hour animals were treated with various doses of compound 18F ranging from 0.5 mg/kg up to 10 mg/kg administered i.p. Morphine at 5 mg/kg i.p. and gabapentin at 100 mg/kg i.p served as positive controls. Each treatment group comprised at least eight animals. One hour post drug administration pain threshold was monitored using thermal and mechanical stimuli as previously described. At the end of the study, rats were euthanized with sodium pentobarbitone 100 mg/kg i.p. Sample rats were then transfused with saline and heparinized 4% formaldehyde solution. The L4-L5 area of the spinal cord and the sciatic nerve were taken for histopathology assessment.
The time latencies for thermal hyperalgesia, and force needed to induce pain of the different treatment groups are compared, using one way ANOVA (analysis of variance), followed by Duncan's post hoc test. A p<0.05 value was considered statistically significant and is indicated on the figure by an asterisk over the relevant treatment group.

iNOS = iNOS gene expression in LPS activated RAW 264.7 macrophages (real-time RT-PCR); format: cell-based, mouse; details: 10 μM, 1 h pre-treatment, 3 hrs after LPS activation
Procedure: RAW 264.7 macrophages, a mouse cell line (ATCC # TIB 71), were grown in Dulbecco's modified Eagle's medium (DMEM) with 4 mM L-glutamine adjusted to contain 1.5 g/L sodium bicarbonate, 4.5 g/L glucose, and 10% heat inactivated fetal bovine serum. Cells were grown in tissue culture flasks and seeded at appropriate density into 6 wells tissue culture plates. Four million Raw cells in half a milliliter were stimulated with 1 μg/ml Lipopolysaccharide E. coli 055:B5 (DIFCO Laboratories). The mouse macrophages were pre-treated for one hour with controls or 10 μM of test compounds, and later on activated with LPS. RNA samples were extracted from the cells 3 hrs after activation and iNOS gene expression levels were analyzed by real-time RT-PCR as previously described. For western blot analysis, compounds were tested at 1, 5 and 10 μM and cells were harvested 24 hrs after LPS stimulation. Supernatant were collected and NO secretion was analyzed using ELISA. Cells were washed 3 times with cold PBS, scrapped and lyzed in 100 μl cell lysis buffer containing 20 mM HEPES, pH 7.6, 150 mM NaCl, 1.5 mM MgCl2, 0.2 mM EDTA, 1% Triton X-100, 10% glycerol, 1 mM DTT, 1 mM PMSF, 10 μg/ml aprotinin. 5 µg/ml leupeptin, 10 mM p-nitrophenyl phosphate, 100 mM β-glycerophosphate, 1 mM sodium fluoride, and 0.1 μM sodium orthovanadate. Cells were lyzed on ice for 10 minutes before further processing.
The results of this experiment are expressed as fold activation of iNOS over non-activated macrophages, after normalization to cyclophilin A expression. Compound 18A inhibits 63% of iNOS gene expression, and compounds 18B, 18E and 18F inhibit 55%, 25% and 100% respectively. […] This surprising observation strengthen the fact that compounds of the invention, though chemically related, have distinct and unexpected properties.

Chain of CB2 receptor (P34972 whole entry): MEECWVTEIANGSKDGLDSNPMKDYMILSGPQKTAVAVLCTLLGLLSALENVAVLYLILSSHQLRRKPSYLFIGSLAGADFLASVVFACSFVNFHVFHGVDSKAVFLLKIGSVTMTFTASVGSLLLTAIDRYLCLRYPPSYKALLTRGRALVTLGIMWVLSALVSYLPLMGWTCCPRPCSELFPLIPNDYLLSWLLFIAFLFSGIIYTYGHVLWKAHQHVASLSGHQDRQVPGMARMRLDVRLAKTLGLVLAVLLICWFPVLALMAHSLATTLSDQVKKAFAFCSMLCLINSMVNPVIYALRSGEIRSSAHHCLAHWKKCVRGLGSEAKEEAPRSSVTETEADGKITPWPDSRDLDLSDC
Chain of CB1 receptor (P21554 whole entry): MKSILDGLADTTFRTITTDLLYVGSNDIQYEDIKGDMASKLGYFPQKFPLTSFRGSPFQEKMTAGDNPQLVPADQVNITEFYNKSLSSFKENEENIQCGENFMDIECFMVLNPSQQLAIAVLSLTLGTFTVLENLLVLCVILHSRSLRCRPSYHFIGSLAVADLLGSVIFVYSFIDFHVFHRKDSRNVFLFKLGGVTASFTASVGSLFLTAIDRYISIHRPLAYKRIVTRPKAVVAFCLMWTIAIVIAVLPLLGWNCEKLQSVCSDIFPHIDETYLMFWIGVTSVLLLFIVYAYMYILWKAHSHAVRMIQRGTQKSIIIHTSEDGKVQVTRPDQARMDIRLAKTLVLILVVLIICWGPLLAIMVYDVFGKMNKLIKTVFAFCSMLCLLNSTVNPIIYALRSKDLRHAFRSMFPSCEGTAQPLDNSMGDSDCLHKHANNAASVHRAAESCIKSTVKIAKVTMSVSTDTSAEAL

## CCCCCCC(C)(C)c1cc(OC(=O)CCC(=O)O)c([C@H]2CC(=O)C3CC2C3(C)C)c(OC(=O)CCC(=O)O)c1 (single isomer, unassigned; (-)) [Compound 18C, (−)-4-{4-[1,1-dimethylheptyl]-2,6-disuccinate-phenyl}-6,6-dimethyl-bicyclo[3.1.1]heptan-2-one]
CB2 receptor
  IC50: 1.52 nM
Visceral pain
  inhibition of pain response as compared to untreated animals: 93%
CB1 receptor
  IC50: 117 nM

## CCCCCCC(C)(C)c1cc(OP(=O)(OCC)OCC)c([C@H]2CC(=O)C3CC2C3(C)C)c(OP(=O)(OCC)OCC)c1 (single isomer, unassigned; (-)) [Compound 18D, (−)-4-{4-[1,1-dimethylheptyl]-2,6-bi-diethylphosphate-phenyl}-6,6-dimethyl-bicyclo[3.1.1]heptan-2-one]
CB2 receptor
  IC50: > 1000 nM
Visceral pain; 2 mg/kg i.v.
  inhibition of writhing responses as compared to vehicle treated group: minimal effect
CB1 receptor
  IC50: > 1000 nM

## CCCCCCC(C)(C)c1cc(OC(=O)/C=C/C(=O)O)c(C2CC(=O)[C@H]3C[C@@H]2C3(C)C)c(OC(=O)/C=C/C(=O)O)c1 (single isomer, unassigned; (-)) [Compound 18G, (−)-4-{4-[1,1-Dimethylheptyl]-2,6-difumarate-phenyl}-6,6-dimethyl-bicyclo[3.1.1]heptan-2-one]
CB2 receptor
  IC50: 30 nM
Inflammatory pain; 20 mg/kg p.o.
  paw volume, percent of vehicle: 96%
  reduction of ΔLT, thermal stimulus: ineffective
Inflammatory pain; single dose of 20 mg/kg p.o.
  reduction in Δforce, mechanical stimulus: 8%
Visceral pain; 2 mg/kg i.v.
  inhibition of writhing responses as compared to vehicle treated group: 91%
Visceral pain
  inhibition of pain response as compared to untreated animals: 56%
CB1 receptor
  IC50: 325 nM

## CCCCC(C)(C)c1cc(O)c([C@H]2CC(=O)C3CC2C3(C)C)c(OC(=O)/C=C/C(=O)O)c1 (single isomer, unassigned; (-)) [Compound 18H, (−)-4-{4-[1,1-Dimethylpentyl]-2-fumarate-6-hydroxy-phenyl}-6,6-dimethyl-bicyclo[3.1.1]heptan-2-one]
Visceral pain; 2 mg/kg i.v.
  inhibition of writhing responses as compared to vehicle treated group: 38%
Visceral pain
  inhibition of pain response as compared to untreated animals: not effective

## Oc1cc2c(cc1O)CN(C(=S)NCCc1ccc(Cl)cc1)CCC2 [CPZ, Capsazepine, reference compound]
Visceral pain; 0.5 mg/kg i.v.
  reduction of writhing responses as compared to vehicle treated animals: no activity
Visceral pain; 2 mg/kg i.v.
  reduction of writhing responses as compared to vehicle treated animals: 67%

## Cc1c(C(=O)NN2CCCCC2)nn(-c2ccc(Cl)cc2Cl)c1-c1ccc(Cl)cc1 [SR141716A, reference compound]
Visceral pain
  effect of antagonist alone on number of writhing responses: had not effect

## Cc1ccc(-c2cc(C(F)(F)F)nn2-c2ccc(S(N)(=O)=O)cc2)cc1 [celecoxib, reference compound]
Visceral pain
  activity in visceral pain model: inactive

## O=C(O)/C=C/C(=O)O [fumaric acid, reference compound]
Visceral pain
  activity in visceral pain model: inactive

## C[C@H]1C[C@@H]2[C@H]([C@@H](O)C[C@@]3(C)[C@H]2CC[C@]3(O)C(=O)CO)[C@@]2(C)C=CC(=O)C=C12 [methylprednisolone, reference compound]
MBP induced acute EAE
  reduction in AUC of clinical score: 34%

## CN1CC[C@]23c4c5ccc(O)c4O[C@H]2[C@@H](O)C=C[C@H]3[C@H]1C5 [morphine, reference compound]
[1]
  effect on pain threshold: trend of increasing the pain threshold

## (−)-4-{4-[1,1-Dimethylpentyl]-2-succinate-6-hydroxy-phenyl}-6,6-dimethyl-bicyclo[3.1.1]heptan-2-one [Compound 18E]
CB2 receptor; read-out: CB2 IC50, displacement of radioligand
  IC50: 7.4 nM
iNOS
  inhibition of iNOS gene expression: 25%
Visceral pain; 2 mg/kg i.v.
  inhibition of writhing responses as compared to vehicle treated group: minimal effect
Visceral pain
  inhibition of pain response as compared to untreated animals: not effective
CB1 receptor; read-out: CB1 IC50, displacement of radioligand
  IC50: 315 nM

## SR144528 [reference compound]
Visceral pain
  effect of antagonist alone on number of writhing responses: had not effect
